The text below walks through data of PubChem BioAssay AID248 (DTP/NCI, 2004).

Several values for one entry are separate records, joined by “and”; a condition that tells them apart may be missing. Identical values can stand only once. Inconclusive results and toxic doses are left out.

The test concerns L1210 leukemia ip in BDF1 mice, survival T/C. Description: NCI In Vivo Anticancer Drug Screen. Data for tumor model L1210 Leukemia (intraperitoneal) in B6D2F1 (BDF1) mice. The following applies: endpoint: mean survival time, higher = longer survival. The method in brief: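 Value reflects the ratio of survival in compound-treated mice to survival in vehicle-treated controls, with both groups carrying the same transplanted tumor.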

[1] abbreviates: dose: 100.0 mg/kg/injection, schedule: Q01DX009 (ip), vehicle: saline with Tween-80.
Setting [2] is: dose: 50.0 mg/kg/injection, schedule: Q04DX003 (ip), vehicle: saline with Tween-80.
[3] abbreviates: dose: 100.0 mg/kg/injection, schedule: Q04DX003 (ip), vehicle: saline with Tween-80.
[4] abbreviates: dose: 200.0 mg/kg/injection, schedule: Q04DX003 (ip), vehicle: saline with Tween-80.
Where [5] appears, read: dose: 100.0 mg/kg/injection, schedule: Q01DX001 (ip), vehicle: carboxymethylcellulose (CMC).
Setting [6] is: dose: 200.0 mg/kg/injection, schedule: Q01DX001 (ip), vehicle: carboxymethylcellulose (CMC).
Where [7] appears, read: dose: 400.0 mg/kg/injection, schedule: Q01DX001 (ip), vehicle: carboxymethylcellulose (CMC).
Setting [8] is: dose: 100.0 mg/kg/injection, schedule: Q01DX001 (ip), vehicle: saline.
Where [9] appears, read: dose: 200.0 mg/kg/injection, schedule: Q01DX001 (ip), vehicle: saline.
[10] abbreviates: dose: 400.0 mg/kg/injection, schedule: Q01DX001 (ip), vehicle: saline.
The mark [11] stands for this setting: dose: 100.0 mg/kg/injection, schedule: Q01DX009 (ip), vehicle: Klucel (hydroxypropylcellulose) (HPC).
[12] abbreviates: dose: 100.0 mg/kg/injection, schedule: Q04DX003 (ip), vehicle: Klucel (hydroxypropylcellulose) (HPC).
The mark [13] stands for this setting: dose: 200.0 mg/kg/injection, schedule: Q01DX009 (ip), vehicle: Klucel (hydroxypropylcellulose) (HPC).
[14] abbreviates: dose: 200.0 mg/kg/injection, schedule: Q04DX003 (ip), vehicle: Klucel (hydroxypropylcellulose) (HPC).
Setting [15] is: dose: 400.0 mg/kg/injection, schedule: Q01DX009 (ip), vehicle: Klucel (hydroxypropylcellulose) (HPC).
Setting [16] is: dose: 400.0 mg/kg/injection, schedule: Q04DX003 (ip), vehicle: Klucel (hydroxypropylcellulose) (HPC).
The mark [17] stands for this setting: dose: 200.0 mg/kg/injection, schedule: Q01DX009 (ip), vehicle: saline with Tween-80.

For `Nc1nc(NCCCc2ccccc2)c(N)c(=O)[nH]1`, the T/C (dose: 25.0 mg/kg/injection, schedule: Q01DX009 (ip), vehicle: saline with Tween-80) is 94 % of control; the T/C (dose: 50.0 mg/kg/injection, schedule: Q01DX009 (ip), vehicle: saline with Tween-80) is 92 % of control; the T/C under setting [1] is 92 % of control and 97 % of control.
For the compound `CC(=O)Oc1ccc(C=O)cc1`, the T/C by setting is: under setting [2], 96 % of control; under setting [3], 91 % of control; under setting [4], 96 % of control.
`Cc1ccc2c(c1)C(c1ccccc1)(c1ccccc1)N(c1ccccc1)S2(=O)=O`: the T/C is, setting by setting: under setting [5], 94 % of control; under setting [6], 91 % of control; under setting [7], 100 % of control.
As to `CCN(CCO)c1ccc(N=O)cc1`, the T/C by setting is: (dose: 5.0 mg/kg/injection, schedule: Q01DX001 (ip), vehicle: saline) 95 % of control; (dose: 10.0 mg/kg/injection, schedule: Q01DX001 (ip), vehicle: saline) 101 % of control; (dose: 50.0 mg/kg/injection, schedule: Q01DX001 (ip), vehicle: saline) 90 % of control.
For `CC(=O)CC(=O)C(F)(F)F.CC(=O)CC(=O)C(F)(F)F.CC(=O)CC(=O)C(F)(F)F.[Cr]`, the T/C was 109 % of control under setting [5], 96 % of control under setting [6] and 98 % of control under setting [7].
Turning to `c1ccc2c(c1)ccc1c3c(oc12)CCCC3`, the T/C is, setting by setting: under setting [8], 116 % of control; under setting [9], 103 % of control; under setting [10], 105 % of control.
In the case of `CCCCC(CC)COC(=O)/C=C/C(=O)OCC(CC)CCCC` (stereo not drawn), the T/C is, setting by setting: under setting [11], 96 % of control; under setting [12], 101 % of control; under setting [13], 107 % of control; under setting [14], 95 % of control; under setting [15], 107 % of control; under setting [16], 93 % of control.
Regarding `Cc1c2ccncc2c(C)c2c1[nH]c1ccc(O)cc12`, the T/C (dose: 3.1 mg/kg/injection, schedule: Q01DX009 (ip), vehicle: saline with Tween-80) was 158 % of control; the T/C (dose: 6.25 mg/kg/injection, schedule: Q01DX009 (ip), vehicle: saline with Tween-80) is 100 % of control; the T/C (dose: 6.3 mg/kg/injection, schedule: Q04DX003 (ip), vehicle: saline with Tween-80) was 122 % of control; the T/C (dose: 12.5 mg/kg/injection, schedule: Q01DX001 (oral), vehicle: saline with Tween-80) is 104 % of control; the T/C (dose: 12.5 mg/kg/injection, schedule: Q01DX009 (ip), vehicle: saline with Tween-80) was 98 % of control; the T/C (dose: 25.0 mg/kg/injection, schedule: Q01DX001 (oral), vehicle: saline with Tween-80) is 106 % of control. In addition, the T/C runs as follows: (dose: 50.0 mg/kg/injection, schedule: Q01DX001 (oral), vehicle: saline with Tween-80) 104 % of control; under setting [2], 98 % of control; (dose: 100.0 mg/kg/injection, schedule: Q01DX001 (oral), vehicle: saline with Tween-80) 114 % of control; (dose: 200.0 mg/kg/injection, schedule: Q01DX001 (oral), vehicle: saline with Tween-80) 112 % of control.
Regarding `CCOP(=O)(NCCc1ccccc1)OCC`, the T/C reads like this: (dose: 50.0 mg/kg/injection, schedule: Q01DX001 (ip), vehicle: carboxymethylcellulose (CMC)) 109 % of control; under setting [5], 109 % of control; under setting [6], 101 % of control.
As for `COc1ccc(S(=O)(=O)NC(=O)NCC=C(C)C)cc1`, the T/C (dose: 50.0 mg/kg/injection, schedule: Q01DX009 (ip), vehicle: Klucel (hydroxypropylcellulose) (HPC)) was 98 % of control; the T/C under setting [11] is 98 % of control; the T/C under setting [12] was 93 % of control; the T/C under setting [13] was 96 % of control; the T/C under setting [14] is 103 % of control; the T/C under setting [16] was 94 % of control.
`CCC1CN2CCc3cc(OC)c(OC)cc3C2CC1O` (stereo not drawn): the T/C reads like this: under setting [1], 97 % of control; under setting [17], 110 % of control.
On to `COc1ccc(CCNC(=O)C(=O)NCCc2ccc(OC)c(OC)c2)cc1OC`, for which the T/C runs as follows: under setting [12], 101 % of control; under setting [14], 89 % of control; under setting [16], 92 % of control.
As to `O=[N+]([O-])c1cc(-c2ccccc2)cc([N+](=O)[O-])c1Cl`, the T/C is, setting by setting: (dose: 50.0 mg/kg/injection, schedule: Q01DX009 (ip), vehicle: acetone) 97 % of control; (dose: 100.0 mg/kg/injection, schedule: Q01DX009 (ip), vehicle: acetone) 100 % of control; (dose: 100.0 mg/kg/injection, schedule: Q04DX003 (ip), vehicle: saline) 96 % of control; (dose: 200.0 mg/kg/injection, schedule: Q01DX009 (ip), vehicle: acetone) 95 % of control; (dose: 200.0 mg/kg/injection, schedule: Q04DX003 (ip), vehicle: saline) 102 % of control; (dose: 400.0 mg/kg/injection, schedule: Q04DX003 (ip), vehicle: saline) 102 % of control.
On to `Cc1cc(C)c(C(=O)c2no[n+]([O-])c2C(=O)c2c(C)cc(C)c(Br)c2C)c(C)c1Br`, for which the T/C under setting [4] is 87 % of control.
With `Cc1ccnc(NS(=O)(=O)c2ccc(N=Nc3c(N)[nH]c(=S)[nH]c3=O)cc2)n1`, the T/C is 97 % of control under setting [5], 95 % of control under setting [6] and 95 % of control under setting [7].
In the case of `O=C1CCCc2c1ccc1ccccc21`, the T/C was 97 % of control under setting [11]; 101 % of control under setting [12]; 103 % of control under setting [14]; 100 % of control under setting [15]; 100 % of control under setting [16].
For the compound `Cn1c(NCC[N+](C)(C)C)nc2ncncc21`, the T/C (dose: 15.0 mg/kg/injection, schedule: Q01DX001 (ip), vehicle: saline) is 90 % of control; the T/C (dose: 30.0 mg/kg/injection, schedule: Q01DX001 (ip), vehicle: saline) was 93 % of control; the T/C (dose: 60.0 mg/kg/injection, schedule: Q01DX001 (ip), vehicle: saline) was 95 % of control.
Regarding `COC(=O)c1c(Cl)c(Cl)c(Cl)c(Cl)c1C(=O)OC`, the T/C is 96 % of control under setting [11]; 96 % of control under setting [1]; 95 % of control under setting [12]; 100 % of control under setting [3]; 102 % of control under setting [13]; 91 % of control under setting [17]. The T/C by setting is: under setting [14], 96 % of control; under setting [4], 100 % of control; under setting [15], 107 % of control; under setting [16], 95 % of control.
Consider `Nc1ncnc2c1ncn2C1OC(CO)C(O)C1OCc1ccccc1` (stereo not drawn), for which the T/C was 90 % of control (dose: 100.0 mg/kg/injection, schedule: Q01DX005 (ip), vehicle: saline) and 103 % of control (dose: 200.0 mg/kg/injection, schedule: Q01DX005 (ip), vehicle: saline).
With `NNC(=O)c1nc2ccccc2s1`, the T/C (dose: 75.0 mg/kg/injection, schedule: Q01DX001 (ip), vehicle: other) was 96 % of control and the T/C (dose: 150.0 mg/kg/injection, schedule: Q01DX001 (ip), vehicle: other) is 98 % of control.
With `CN(C)CCC(=O)c1ccc2ccccc2c1`, the T/C is, setting by setting: (dose: 9.38 mg/kg/injection, schedule: Q01DX001 (ip), vehicle: saline) 100 % of control; (dose: 18.75 mg/kg/injection, schedule: Q01DX001 (ip), vehicle: saline) 101 % of control; (dose: 37.5 mg/kg/injection, schedule: Q01DX001 (ip), vehicle: saline) 105 % of control.
For the compound `[CH3][Sb]([CH3])([CH3])([O]C(=O)C(Cl)Cl)[O]C(=O)C(Cl)Cl`, the T/C under setting [3] is 105 % of control; the T/C under setting [4] is 108 % of control; the T/C (dose: 400.0 mg/kg/injection, schedule: Q04DX003 (ip), vehicle: saline with Tween-80) is 103 % of control.
`Nc1ccc(-c2ccccc2)cc1Br`: the T/C was 101 % of control (dose: 15.0 mg/kg/injection, schedule: Q01DX001 (ip), vehicle: carboxymethylcellulose (CMC)) and 96 % of control (dose: 30.0 mg/kg/injection, schedule: Q01DX001 (ip), vehicle: carboxymethylcellulose (CMC)).
For the compound `C=CS(=O)(=O)c1ccc(N)cc1`, the T/C by setting is: under setting [11], 103 % of control; under setting [13], 95 % of control.
Regarding `O=C1C2=C(c3ccccc31)C1c3ccccc3C(=O)C1(c1ccccc1)c1ccccc12` (stereo not drawn), the T/C is 105 % of control under setting [8], 97 % of control under setting [9] and 92 % of control under setting [10].
